{"source": "PubChem BioAssay AID256", "about": "(DTP/NCI, 2004)", "system": "CD2F1 mice, L1210 leukemia ip, survival T/C", "assay": "NCI In Vivo Anticancer Drug Screen. Data for tumor model L1210 Leukemia (intraperitoneal) in CD2F1 (CDF1) mice", "conditions": "higher = longer survival", "outline": "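Transplantable tumor in mice; compound-treated vs vehicle-treated groups. Read-out = treated/control ratio of the measured endpoint.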", "key": {"[1]": {"conditions": "endpoint: mean survival time, dose: 50.0 mg/kg/injection, schedule: Q01DX009 (ip), vehicle: saline"}}, "note": "Values joined by “and” are separate entries in the source; they are usually repeats but may differ in a detail not shown here. Identical values can stand only once. Inconclusive results and toxic doses are left out."}
{"smiles": "Cc1c(-c2ccc(C3CCCCC3)cc2)nc2ccc(F)cc2c1C(=O)O", "values": [{"measurement": "T/C", "setting": "endpoint: median survival time, dose: 12.5 mg/kg/injection, schedule: Q01DX005 (ip), vehicle: Klucel (hydroxypropylcellulose) (HPC)", "result": "109 % of control"}, {"measurement": "T/C", "setting": "endpoint: median survival time, dose: 12.5 mg/kg/injection, schedule: Q01DX005 (ip), vehicle: sodium bicarbonate", "result": "114 % of control and 104 % of control"}, {"measurement": "T/C", "setting": "endpoint: median survival time, dose: 25.0 mg/kg/injection, schedule: Q01DX005 (ip), vehicle: Klucel (hydroxypropylcellulose) (HPC)", "result": "110 % of control"}, {"measurement": "T/C", "setting": "endpoint: median survival time, dose: 25.0 mg/kg/injection, schedule: Q01DX005 (ip), vehicle: sodium bicarbonate", "result": "122 % of control and 108 % of control"}, {"measurement": "T/C", "setting": "endpoint: median survival time, dose: 50.0 mg/kg/injection, schedule: Q01DX005 (ip), vehicle: sodium bicarbonate", "result": "123 % of control and 124 % of control and 104 % of control"}, {"measurement": "T/C", "setting": "endpoint: median survival time, dose: 100.0 mg/kg/injection, schedule: Q01DX005 (ip), vehicle: sodium bicarbonate", "result": "120 % of control and 109 % of control"}, {"measurement": "T/C", "setting": "endpoint: median survival time, dose: 100.0 mg/kg/injection, schedule: Q01DX009 (ip), vehicle: Klucel (hydroxypropylcellulose) (HPC)", "result": "182 % of control"}, {"measurement": "T/C", "setting": "endpoint: median survival time, dose: 200.0 mg/kg/injection, schedule: Q01DX009 (ip), vehicle: Klucel (hydroxypropylcellulose) (HPC)", "result": "183 % of control"}, {"measurement": "T/C", "setting": "endpoint: median survival time, dose: 400.0 mg/kg/injection, schedule: Q01DX009 (ip), vehicle: Klucel (hydroxypropylcellulose) (HPC)", "result": "89 % of control"}]}
{"smiles": "CCCCCCCCCCCCOCCOCCOCCOCCO", "values": [{"measurement": "T/C", "setting": "endpoint: mean survival time, dose: 100.0 mg/kg/injection, schedule: Q04DX002 (ip), vehicle: saline with Tween-80", "result": "98 % of control"}, {"measurement": "T/C", "setting": "endpoint: mean survival time, dose: 200.0 mg/kg/injection, schedule: Q04DX002 (ip), vehicle: saline with Tween-80", "result": "102 % of control"}]}
{"smiles": "COc1cc2c(c(OC)c1OC)-c1cc3c(cc1[C@@H](OC(C)=O)[C@@H]1COC(=O)[C@H]1C2)OCO3", "values": [{"measurement": "T/C", "setting": "endpoint: mean survival time, dose: 1.25 mg/kg/injection, schedule: Q01DX009 (ip), vehicle: Klucel (hydroxypropylcellulose) (HPC)", "result": "95 % of control"}, {"measurement": "T/C", "setting": "endpoint: mean survival time, dose: 2.5 mg/kg/injection, schedule: Q01DX009 (ip), vehicle: Klucel (hydroxypropylcellulose) (HPC)", "result": "103 % of control"}, {"measurement": "T/C", "setting": "endpoint: mean survival time, dose: 5.0 mg/kg/injection, schedule: Q01DX009 (ip), vehicle: Klucel (hydroxypropylcellulose) (HPC)", "result": "97 % of control"}, {"measurement": "T/C", "setting": "endpoint: mean survival time, dose: 10.0 mg/kg/injection, schedule: Q01DX009 (ip), vehicle: Klucel (hydroxypropylcellulose) (HPC)", "result": "112 % of control"}]}
{"smiles": "COc1cc2c(cc1OC)CCN=C2", "values": [{"measurement": "T/C", "setting": "[1]", "result": "106 % of control"}, {"measurement": "T/C", "setting": "endpoint: mean survival time, dose: 100.0 mg/kg/injection, schedule: Q01DX009 (ip), vehicle: saline", "result": "92 % of control"}]}
{"smiles": "CC(C)c1ccccc(=O)c1O.CC(C)c1ccccc(=O)c1O.[Cu]", "values": [{"measurement": "T/C", "setting": "endpoint: mean survival time, dose: 6.25 mg/kg/injection, schedule: Q01DX009 (ip), vehicle: saline with Tween-80", "result": "102 % of control"}, {"measurement": "T/C", "setting": "endpoint: mean survival time, dose: 12.5 mg/kg/injection, schedule: Q01DX009 (ip), vehicle: saline with Tween-80", "result": "100 % of control"}, {"measurement": "T/C", "setting": "endpoint: mean survival time, dose: 25.0 mg/kg/injection, schedule: Q01DX009 (ip), vehicle: saline with Tween-80", "result": "103 % of control"}]}
{"smiles": "CC(=O)O.CC(=O)O.CC(=O)O.[O]=[U]=[O]", "values": [{"measurement": "T/C", "setting": "endpoint: mean survival time, dose: 12.5 mg/kg/injection, schedule: Q01DX009 (ip), vehicle: saline", "result": "98 % of control"}, {"measurement": "T/C", "setting": "endpoint: mean survival time, dose: 25.0 mg/kg/injection, schedule: Q01DX009 (ip), vehicle: saline", "result": "98 % of control"}, {"measurement": "T/C", "setting": "[1]", "result": "90 % of control"}]}
{"smiles": "Nc1nc2ncn(O)c2c(=O)[nH]1", "values": [{"measurement": "T/C", "setting": "endpoint: median survival time, dose: 3.12 mg/kg/injection, schedule: Q01DX009 (ip), vehicle: other", "result": "176 % of control"}, {"measurement": "T/C", "setting": "endpoint: median survival time, dose: 6.25 mg/kg/injection, schedule: Q01DX009 (ip), vehicle: other", "result": "195 % of control"}, {"measurement": "T/C", "setting": "endpoint: median survival time, dose: 6.25 mg/kg/injection, schedule: Q01DX009 (ip), vehicle: water", "result": "168 % of control and 172 % of control"}, {"measurement": "T/C", "setting": "endpoint: median survival time, dose: 12.5 mg/kg/injection, schedule: Q01DX009 (ip), vehicle: other", "result": "162 % of control"}, {"measurement": "T/C", "setting": "endpoint: median survival time, dose: 12.5 mg/kg/injection, schedule: Q01DX009 (ip), vehicle: water", "result": "168 % of control and 234 % of control"}, {"measurement": "T/C", "setting": "endpoint: median survival time, dose: 25.0 mg/kg/injection, schedule: Q01DX009 (ip), vehicle: other", "result": "101 % of control"}, {"measurement": "T/C", "setting": "endpoint: median survival time, dose: 25.0 mg/kg/injection, schedule: Q01DX009 (ip), vehicle: water", "result": "164 % of control"}]}
{"smiles": "O=C(CC1CCCCN1)CC1CCCCN1", "note": "(configuration not stated)", "values": [{"measurement": "T/C", "setting": "endpoint: median survival time, dose: 25.0 mg/kg/injection, schedule: Q04DX003 (ip), vehicle: saline", "result": "100 % of control"}, {"measurement": "T/C", "setting": "endpoint: median survival time, dose: 50.0 mg/kg/injection, schedule: Q04DX003 (ip), vehicle: saline", "result": "100 % of control"}, {"measurement": "T/C", "setting": "endpoint: median survival time, dose: 100.0 mg/kg/injection, schedule: Q04DX003 (ip), vehicle: saline", "result": "90 % of control"}, {"measurement": "T/C", "setting": "endpoint: median survival time, dose: 200.0 mg/kg/injection, schedule: Q04DX003 (ip), vehicle: saline", "result": "90 % of control"}]}
{"smiles": "O=C1C=C(S(=O)(=O)O)c2ccccc2C1=O", "values": [{"measurement": "T/C", "setting": "endpoint: mean survival time, dose: 100.0 mg/kg/injection, schedule: Q04DX003 (ip), vehicle: saline", "result": "105 % of control"}, {"measurement": "T/C", "setting": "endpoint: mean survival time, dose: 200.0 mg/kg/injection, schedule: Q04DX003 (ip), vehicle: saline", "result": "103 % of control"}, {"measurement": "T/C", "setting": "endpoint: mean survival time, dose: 400.0 mg/kg/injection, schedule: Q04DX003 (ip), vehicle: saline", "result": "108 % of control"}]}
{"smiles": "CC(=O)Nc1cccc(C)n1", "values": [{"measurement": "T/C", "setting": "endpoint: mean survival time, dose: 75.0 mg/kg/injection, schedule: Q01DX001 (ip), vehicle: saline", "result": "98 % of control"}, {"measurement": "T/C", "setting": "endpoint: mean survival time, dose: 150.0 mg/kg/injection, schedule: Q01DX001 (ip), vehicle: saline", "result": "98 % of control"}]}
{"smiles": "O=C(COc1ccc(Cl)cc1)C1CSc2c(Cl)ccc(Cl)c21", "note": "(configuration not stated)", "values": [{"measurement": "T/C", "setting": "endpoint: mean survival time, dose: 100.0 mg/kg/injection, schedule: Q04DX003 (ip), vehicle: saline with Tween-80", "result": "92 % of control"}, {"measurement": "T/C", "setting": "endpoint: mean survival time, dose: 200.0 mg/kg/injection, schedule: Q04DX003 (ip), vehicle: saline with Tween-80", "result": "98 % of control"}, {"measurement": "T/C", "setting": "endpoint: mean survival time, dose: 400.0 mg/kg/injection, schedule: Q04DX003 (ip), vehicle: saline with Tween-80", "result": "101 % of control"}]}
